Assay results as given in publication PMC8445441, “Elucidating the mechanism by which synthetic helper peptides sensitize Pseudomonas aeruginosa to multiple antibiotics” (PLoS Pathogens, 2021).
Like-named read-outs stand apart in the source and are kept apart here.

Columns and labels:
[1] = tested on: P. aeruginosa AUMC-Pa-3; assay: microbe, parasite or virus in culture; conditions: strain AUMC-Pa-3; for FICI: antibiotic + D-11 (MICb/MICbc 128/4); for MICa: MIC of the antibiotic: antibiotic alone; for MICa: MIC of the antibiotic / MICac: MIC of the antibiotic in the combination: unit not given; for MICac: MIC of the antibiotic in the combination: with D-11 at MICbc 4
How it was run: (§1)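 Broth microdilution per CLSI in MHB: two-fold drug dilutions mixed with an equal volume of bacterial suspension at approximately 1 × 10^6 CFU/mL, incubated 18 h at 37 °C. MIC was the lowest concentration with no visible growth; triplicate runs.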

[2] = tested on: P. aeruginosa AUMC-Pa-4; assay: microbe, parasite or virus in culture; conditions: strain AUMC-Pa-4; for FICI: antibiotic + D-11 (MICb/MICbc 128/4); for MICa: MIC of the antibiotic: antibiotic alone; for MICa: MIC of the antibiotic / MICac: MIC of the antibiotic in the combination: unit not given; for MICac: MIC of the antibiotic in the combination: with D-11 at MICbc 4
How it was run: as §1

[3] = tested on: P. aeruginosa AUMC-Pa-5; assay: microbe, parasite or virus in culture; conditions: strain AUMC-Pa-5; for FICI: antibiotic + D-11 (MICb/MICbc 64/4); for MICa: MIC of the antibiotic: antibiotic alone; for MICa: MIC of the antibiotic / MICac: MIC of the antibiotic in the combination: unit not given; for MICac: MIC of the antibiotic in the combination: with D-11 at MICbc 4
How it was run: as §1

[4] = tested on: P. aeruginosa AUMC-Pa-6; assay: microbe, parasite or virus in culture; conditions: strain AUMC-Pa-6; for FICI: antibiotic + D-11 (MICb/MICbc 64/4); for MICa: MIC of the antibiotic: antibiotic alone; for MICa: MIC of the antibiotic / MICac: MIC of the antibiotic in the combination: unit not given; for MICac: MIC of the antibiotic in the combination: with D-11 at MICbc 4
How it was run: as §1

[5] = tested on: P. aeruginosa PAO1; assay: microbe, parasite or virus in culture; conditions: PAO1
How it was run: as §1

[6] = tested on: P. aeruginosa ATCC27853; assay: microbe, parasite or virus in culture; design: MICa: MIC of the antibiotic / MICac: MIC of the antibiotic in the combination: unit not given beside the values; conditions: strain ATCC27853; for FICI: antibiotic + D-11 (MICb/MICbc 32/4); for MICa: MIC of the antibiotic: antibiotic alone; for MICa: MIC of the antibiotic / MICac: MIC of the antibiotic in the combination: unit not given; for MICac: MIC of the antibiotic in the combination: with D-11 at MICbc 4
Procedure: (§2) The MIC tests were performed in triplicate using broth microdilution in accordance with Clinical and Laboratory Standards Institute (CLSI) recommendations (http://iacld.ir/DL/public/CLSI-2018-M100-S28.pdf). Briefly, drugs were two-fold diluted in MHB and mixed with an equal volume of bacterial suspensions containing approximately 1 × 10^6 CFU/mL in 96-well microliter plate. After 18 h incubation at 37 °C, the MIC values were defined as the lowest concentrations of antibiotics with no visible growth of bacteria. […] Otherwise, 1/4 MIC of the peptide was used in the combination. […] If needed, membrane compounds PG, PE, PC, CL or LPS, or membrane stabilizers MgCl2 or CaCl2, or efflux pumps inhibitor PAβN were added to the broth medium to clarify the effect of other substances on the synergy between peptide and antibiotics. All the tests were performed in triplicate.
(§3) The fractional inhibitory concentration (FIC) indices were calculated using the previously described formula FICI = FICa + FICb = MICac/MICa + MICbc/MICb. The FICI was interpreted according to EUCAST [65] as follows: synergistic, FICI≤0.5; additive, 0.5<FICI≤1; indifferent, 1<FICI<2; antagonistic, FICI ≥2. For the FICI calculations, twice the highest concentration tested was used in the cases where the MIC was not reached.

[7] = tested on: P. aeruginosa NR-31040; assay: microbe, parasite or virus in culture; design: MICa: MIC of the antibiotic / MICac: MIC of the antibiotic in the combination: unit not given beside the values; conditions: strain NR-31040; for FICI: antibiotic + D-11 (MICb/MICbc 128/4); for MICa: MIC of the antibiotic: antibiotic alone; for MICa: MIC of the antibiotic / MICac: MIC of the antibiotic in the combination: unit not given; for MICac: MIC of the antibiotic in the combination: with D-11 at MICbc 4
Procedure: as §2, §3

[8] = tested on: P. aeruginosa NR-31041; assay: microbe, parasite or virus in culture; design: MICa: MIC of the antibiotic / MICac: MIC of the antibiotic in the combination: unit not given beside the values; conditions: strain NR-31041; for FICI: antibiotic + D-11 (MICb/MICbc 64/4); for MICa: MIC of the antibiotic: antibiotic alone; for MICa: MIC of the antibiotic / MICac: MIC of the antibiotic in the combination: unit not given; for MICac: MIC of the antibiotic in the combination: with D-11 at MICbc 4
Procedure: as §2, §3

[9] = tested on: P. aeruginosa PA14; assay: microbe, parasite or virus in culture; design: MICa: MIC of the antibiotic / MICac: MIC of the antibiotic in the combination: unit not given beside the values; conditions: strain PA14; for FICI: antibiotic + D-11 (MICb/MICbc 128/4); for MICa: MIC of the antibiotic: antibiotic alone; for MICa: MIC of the antibiotic / MICac: MIC of the antibiotic in the combination: unit not given; for MICac: MIC of the antibiotic in the combination: with D-11 at MICbc 4
Procedure: as §2, §3

[10] = tested on: P. aeruginosa PAK; assay: microbe, parasite or virus in culture; design: MICa: MIC of the antibiotic / MICac: MIC of the antibiotic in the combination: unit not given beside the values; conditions: strain PAK; for FICI: antibiotic + D-11 (MICb/MICbc 64/4); for MICa: MIC of the antibiotic: antibiotic alone; for MICa: MIC of the antibiotic / MICac: MIC of the antibiotic in the combination: unit not given; for MICac: MIC of the antibiotic in the combination: with D-11 at MICbc 4
Procedure: as §2, §3

[11] = tested on: P. aeruginosa HM-214; conditions: strain HM-214; antibiotic + D-11 (MICb/MICbc 128/4)
Procedure: as §2, §3

[12] = tested on: P. aeruginosa AUMC-Pa-1; conditions: strain AUMC-Pa-1; antibiotic + D-11 (MICb/MICbc 128/4)
Procedure: as §2, §3

[13] = tested on: P. aeruginosa AUMC-Pa-2; conditions: strain AUMC-Pa-2; antibiotic + D-11 (MICb/MICbc 64/4)
Procedure: as §2, §3

[14] = tested on: clinical P. aeruginosa isolates; assay: microbe, parasite or virus in culture; conditions: Pseudomonas aeruginosa, 18 h, antibiotic alone
How it was run: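 Broth microdilution per CLSI in MHB, two-fold drug dilutions mixed with an equal volume of bacteria at about 1 × 10^6 CFU/mL. After 18 h at 37 °C, MIC taken as the lowest concentration with no visible growth; run in triplicate.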

[15] = S3 Table, antibiotic + 2 μM D-11
[16] = S3 Table, antibiotic + 4 μM D-11
[17] = read-out: Antibiotic sensibility (MIC) of clinical P. aeruginosa isolate AUMC-Pa-1, strain AUMC-Pa-1
[18] = read-out: Antibiotic sensibility (MIC) of clinical P. aeruginosa isolate AUMC-Pa-2, strain AUMC-Pa-2
[19] = read-out: Antibiotic sensibility (MIC) of clinical P. aeruginosa isolate AUMC-Pa-3, strain AUMC-Pa-3
[20] = read-out: Antibiotic sensibility (MIC) of clinical P. aeruginosa isolate AUMC-Pa-4, strain AUMC-Pa-4
[21] = read-out: Antibiotic sensibility (MIC) of clinical P. aeruginosa isolate AUMC-Pa-5, strain AUMC-Pa-5
[22] = read-out: Antibiotic sensibility (MIC) of clinical P. aeruginosa isolate AUMC-Pa-6, strain AUMC-Pa-6
[23] = read-out: Antibiotic sensibility (MIC) of clinical P. aeruginosa isolate HM-214, strain HM-214
[24] = read-out: Antibiotic sensibility (MIC) of clinical P. aeruginosa isolate NR-31040, strain NR-31040
[25] = read-out: Antibiotic sensibility (MIC) of clinical P. aeruginosa isolate NR-31041, strain NR-31041

## C[C@H]1[C@H](NC(=O)/C(=N\OC(C)(C)C(=O)O)c2csc(N)n2)C(=O)N1S(=O)(=O)O [Aztreonam]
[1]
  FICI: 0.094
  MICa: MIC of the antibiotic: 16
  MICac: MIC of the antibiotic in the combination: 1
[2]
  FICI: 0.156
  MICa: MIC of the antibiotic: 32
  MICac: MIC of the antibiotic in the combination: 4
[3]
  FICI: 0.563
  MICa: MIC of the antibiotic: 16
  MICac: MIC of the antibiotic in the combination: 8
[4]
  FICI: 0.563
  MICa: MIC of the antibiotic: 16
  MICac: MIC of the antibiotic in the combination: 8
[5]; Pseudomonas aeruginosa, PAO1, 18 h, read-out: MICa: the MIC of antibiotics, S3 Table, antibiotic alone
  MIC: 8 µM
[5]; [15]
  FICI: 0.188
[5]; [16]
  FICI: 0.156
[5]; S3 Table, with 2 μM D-11
  MICac: the MIC for the antibiotic in the combination: 1 µM
[5]; S3 Table, with 4 μM D-11
  MICac: the MIC for the antibiotic in the combination: 0.25 µM
[6]
  FICI: 0.625
  MICa: MIC of the antibiotic: 8
  MICac: MIC of the antibiotic in the combination: 4
[7]
  FICI: 0.281
  MICa: MIC of the antibiotic: 4
  MICac: MIC of the antibiotic in the combination: 1
[8]
  FICI: 0.188
  MICa: MIC of the antibiotic: 64
  MICac: MIC of the antibiotic in the combination: 8
[9]
  FICI: 0.531
  MICa: MIC of the antibiotic: 16
  MICac: MIC of the antibiotic in the combination: 8
[10]
  FICI: 0.563
  MICa: MIC of the antibiotic: 8
  MICac: MIC of the antibiotic in the combination: 4
[11]
  FICI: 0.531
[12]
  FICI: 0.094
[13]
  FICI: 1.063
[14]; [17]
  MIC: 32 µM
[14]; [18]
  MIC: 4 µM
[14]; [19]
  MIC: 16 µM
[14]; [20]
  MIC: 32 µM
[14]; [21]
  MIC: 16 µM
[14]; [22]
  MIC: 16 µM
[14]; [23]
  MIC: 16 µM
[14]; [24]
  MIC: 4 µM
[14]; [25]
  MIC: 64 µM

## CC1(C)S[C@@H]2[C@H](NC(=O)C(C(=O)O)c3ccccc3)C(=O)N2[C@H]1C(=O)O (stereo partly shown) [Carbenicillin]
[1]
  FICI: 0.281
  MICa: MIC of the antibiotic: 128
  MICac: MIC of the antibiotic in the combination: 32
[2]
  FICI: 0.531
  MICa: MIC of the antibiotic: 128
  MICac: MIC of the antibiotic in the combination: 64
[3]
  FICI: 1.063
  MICa: MIC of the antibiotic: 128/128
  MICac: MIC of the antibiotic in the combination: 128/128
[4]
  FICI: 1.063
  MICa: MIC of the antibiotic: 128/128
  MICac: MIC of the antibiotic in the combination: 128/128
[5]; [15]
  FICI: 0.313
[5]; [16]
  FICI: 0.188
[5]; S3 Table, with 2 μM D-11
  MICac: the MIC for the antibiotic in the combination: 16 µM
[5]; S3 Table, with 4 μM D-11
  MICac: the MIC for the antibiotic in the combination: 4 µM
[5]; S3 Table, antibiotic alone
  MICa: the MIC of antibiotics: 64 µM
[6]
  FICI: 0.375
  MICa: MIC of the antibiotic: 128
  MICac: MIC of the antibiotic in the combination: 32
[7]
  FICI: 1.031
  MICa: MIC of the antibiotic: 64/64
  MICac: MIC of the antibiotic in the combination: 64/64
[8]
  FICI: 1.063
  MICa: MIC of the antibiotic: 128/128
  MICac: MIC of the antibiotic in the combination: 128/128
[9]
  FICI: 1.031
  MICa: MIC of the antibiotic: 128/128
  MICac: MIC of the antibiotic in the combination: 128/128
[10]
  FICI: 0.563
  MICa: MIC of the antibiotic: 128
  MICac: MIC of the antibiotic in the combination: 64
[11]
  FICI: 1.031
[12]
  FICI: 0.531
[13]
  FICI: 1.063
[14]; [17]
  MIC: > 128 µM
[14]; [18]
  MIC: 64 µM
[14]; [19]
  MIC: 128 µM
[14]; [20]
  MIC: 128 µM
[14]; [21]
  MIC: 128 µM
[14]; [22]
  MIC: 128 µM
[14]; [23]
  MIC: 128 µM
[14]; [24]
  MIC: 64 µM
[14]; [25]
  MIC: 128 µM
